Among the data in patent US20220389007A1, “INHIBITORS OF HUMAN IMMUNODEFICIENCY VIRUS REPLICATION” (VIIV HEALTHCARE UK (No. 5) LIMITED, priority 2019, published 2022) are EC50 and CC50 values, retold here.

Data set [1] has as its system recombinant NL4-3 virus. Description: HIV cell culture assay (antiviral activity, luciferase readout). Format: cell-based. To be noted: Human immunodeficiency virus 1, NL43, MT2, MT-2 cells infected for 4-5 days with recombinant NL4-3 virus carrying Renilla luciferase. As to the method:
HIV cell culture assay—MT-2 cells, 293T cells and the proviral DNA clone of NL4-3 virus were obtained from the NIH AIDS Research and Reference Reagent Program. MT-2 cells were propagated in RPMI 1640 media supplemented with 10% heat inactivated fetal bovine serum (FBS), […]. The 293T cells were propagated in DMEM media supplemented with 10% heat inactivated FBS, […]. A recombinant NL4-3 proviral clone, in which a section of the nef gene was replaced with the Renilla luciferase gene, was used to make the reference virus used in these studies. The recombinant virus was prepared through transfection of the recombinant NL4-3 proviral clone into 293T cells using Transit-293 Transfection Reagent from Mirus Bio LLC (Madison, WI). Supernatent was harvested after 2-3 days and the amount of virus present was titered in MT-2 cells using luciferase enzyme activity as a marker by measuring luciferase enzyme activity. Luciferase was quantitated using the EnduRen Live Cell Substrate from Promega (Madison, Wis.). Antiviral activities of compounds toward the recombinant virus were quantified by measuring luciferase activity in MT-2 cells infected for 4-5 days with the recombinant virus in the presence of serial dilutions of the compound.
The 50% effective concentration (EC50) was calculated by using the exponential form of the median effect equation where (Fa)=1/[1+(ED50/drug conc.)m] (Johnson VA, Byington RT. Infectivity Assay. In Techniques in HIV Research. ed. Aldovini A, Walker BD. 71-76. New York: Stockton Press. 1990). The 50% inhibitory concentration (EC50) was calculated by using the exponential form of the median effect equation where percent inhibition=1/[1+(EC50/drug concentration)m], where m is a parameter that reflects the slope of the concentration-response curve.

Data set [2] in a line: Compound cytotoxicity, XTT-based colorimetric assay. Format: cell-based. The settings on record: human; uninfected MT2 cells, day 4, XTT assay. As to the method: Compound cytotoxicity and the corresponding CC50 values were determined using the same protocol as described in the antiviral assay except that uninfected cells were used. Cytotoxicity was assessed on day 4 in uninfected MT2 cells by using a XTT (2,3-bis[2-Methoxy-4-nitro-5-sulfophenyl]-2H-tetrazolium-5-carboxyanilide inner salt)-based colorimetric assay (Sigma-Aldrich, St Louis, Mo.).
(Formazan colour is commonly taken as a measure of viable cells.)

A word on the EC50: it is the midpoint of the concentration-response curve. As usually defined, the CC50 is the concentration giving 50% cytotoxicity. For `Cc1cc(-c2ccc3c(=O)n(-c4ccc(Cl)c5c(NS(C)(=O)=O)nn(C)c45)c([C@H](Cc4cc(F)cc(F)c4)NC(=O)Cn4nc(C(F)F)c5c4C(F)(F)[C@@H]4C[C@H]54)nc3n2)ccn1` (atropisomer, axis not shown; (P)) [Example 48, N-((S)-1-((3P)-3-(4-chloro-1-methyl-3-(methylsulfonamido)-1H-indazol-7-yl)-7-(2-methylpyridin-4-yl)-4-oxo-3,4-dihydropyrido[2,3-d]pyrimidin-2-yl)-2-(3,5-difluorophenyl)ethyl)-2-((3bS,4aR)-3-(difluoromethyl)-5,5-difluoro-3b,4,4a,5-tetrahydro-1H-cyclopropa[3,4]cyclopenta[1,2-c]pyrazol-1-yl)acetamide], the concentration for a half-maximal effect (EC50) in data set [1] is 53 pM. Further, the cytotoxic concentration (CC50) at 4 day in data set [2] was > 100000 pM.

With `Cn1nc(NS(C)(=O)=O)c2c(Cl)ccc(-n3c([C@H](Cc4cc(F)cc(F)c4)NC(=O)Cn4nc(C(F)F)c5c4C(F)(F)[C@@H]4C[C@H]54)nc4nc(-c5nc(C(F)(F)F)ccc5F)ccc4c3=O)c21` (atropisomer, axis not shown; (P)) [Example 36, N-((S)-1-((3P)-3-(4-chloro-1-methyl-3-(methylsulfonamido)-1H-indazol-7-yl)-7-(3-fluoro-6-(trifluoromethyl)pyridin-2-yl)-4-oxo-3,4-dihydropyrido[2,3-d]pyrimidin-2-yl)-2-(3,5-difluorophenyl)ethyl)-2-((3bS,4aR)-3-(difluoromethyl)-5,5-difluoro-3b,4,4a,5-tetrahydro-1H-cyclopropa[3,4]cyclopenta[1,2-c]pyrazol-1-yl)acetamide], the EC50 in data set [1] was 45 pM. The CC50 at 4 day in data set [2] was > 100000 pM.

As for `Cn1nc(NS(C)(=O)=O)c2c(Cl)ccc(-n3c([C@H](Cc4cc(F)cc(F)c4)NC(=O)Cn4nc(C(F)F)c5c4C(F)(F)[C@@H]4C[C@H]54)nc4nc(-n5ccnc5)ccc4c3=O)c21` (atropisomer, axis not shown; (P)) [Example 64, N-((S)-1-((3P)-3-(4-chloro-1-methyl-3-(methylsulfonamido)-1H-indazol-7-yl)-7-(1H-imidazol-1-yl)-4-oxo-3,4-dihydropyrido[2,3-d]pyrimidin-2-yl)-2-(3,5-difluorophenyl)ethyl)-2-((3bS,4aR)-3-(difluoromethyl)-5,5-difluoro-3b,4,4a,5-tetrahydro-1H-cyclopropa[3,4]cyclopenta[1,2-c]pyrazol-1-yl)acetamide], the EC50 in data set [1] amounted to 530 pM. Further, in data set [2], the 50% cytotoxic concentration (CC50) at 4 day was > 100000 pM.

Consider `Cn1nc(NS(C)(=O)=O)c2c(Cl)ccc(-n3c([C@H](Cc4cc(F)cc(F)c4)NC(=O)Cn4nc(C(F)F)c5c4C(F)(F)[C@@H]4C[C@H]54)nc4nc(-c5cccc(OC(F)F)c5)ccc4c3=O)c21` (atropisomer, axis not shown; (P)) [Example 20, N-((S)-1-((3P)-3-(4-chloro-1-methyl-3-(methylsulfonamido)-1H-indazol-7-yl)-7-(3-(difluoromethoxy)phenyl)-4-oxo-3,4-dihydropyrido[2,3-d]pyrimidin-2-yl)-2-(3,5-difluorophenyl)ethyl)-2-((3bS,4aR)-3-(difluoromethyl)-5,5-difluoro-3b,4,4a,5-tetrahydro-1H-cyclopropa[3,4]cyclopenta[1,2-c]pyrazol-1-yl)acetamide], for which the EC50 in data set [1] came to 200 pM. The 50% cytotoxic concentration (CC50) at 4 day in data set [2] was > 100000 pM.

For the compound `Cc1cc(-c2ccc3c(=O)n(-c4ccc(Cl)c5c(NS(C)(=O)=O)nn(C)c45)c([C@H](Cc4cc(F)cc(F)c4)NC(=O)Cn4nc(C(F)F)c5c4C(F)(F)[C@@H]4C[C@H]54)nc3n2)n(C)n1` (atropisomer, axis not shown; (P)) [Example 70, N-((S)-1-((3P)-3-(4-chloro-1-methyl-3-(methylsulfonamido)-1H-indazol-7-yl)-7-(1,3-dimethyl-1H-pyrazol-5-yl)-4-oxo-3,4-dihydropyrido[2,3-d]pyrimidin-2-yl)-2-(3,5-difluorophenyl)ethyl)-2-((3bS,4aR)-3-(difluoromethyl)-5,5-difluoro-3b,4,4a,5-tetrahydro-1H-cyclopropa[3,4]cyclopenta[1,2-c]pyrazol-1-yl)acetamide], the EC50 in data set [1] was 41 pM. Further, in data set [2], the CC50 at 4 day was > 100000 pM.

Take `Cn1nc(NS(C)(=O)=O)c2c(Cl)ccc(-n3c([C@H](Cc4cc(F)cc(F)c4)NC(=O)Cn4nc(C(F)F)c5c4C(F)(F)[C@@H]4C[C@H]54)nc4nc(-c5ccn(CCCF)n5)ccc4c3=O)c21` (atropisomer, axis not shown; (P)) [Example 87, N-((S)-1-((3P)-3-(4-chloro-1-methyl-3-(methylsulfonamido)-1H-indazol-7-yl)-7-(1-(3-fluoropropyl)-1H-pyrazol-3-yl)-4-oxo-3,4-dihydropyrido[2,3-d]pyrimidin-2-yl)-2-(3,5-difluorophenyl)ethyl)-2-((3bS,4aR)-3-(difluoromethyl)-5,5-difluoro-3b,4,4a,5-tetrahydro-1H-cyclopropa[3,4]cyclopenta[1,2-c]pyrazol-1-yl)acetamide]: the concentration giving a half-maximal response (EC50) in data set [1] amounted to 36 pM. Also, in data set [2], the CC50 at 4 day was > 100000 pM.

Take `Cn1nc(C(F)(F)F)cc1-c1ccc2c(=O)n(-c3ccc(Cl)c4c(NS(C)(=O)=O)nn(C)c34)c([C@H](Cc3cc(F)cc(F)c3)NC(=O)Cn3nc(C(F)F)c4c3C(F)(F)[C@@H]3C[C@H]43)nc2n1` (atropisomer, axis not shown; (P)) [Example 83, N-((S)-1-((3P)-3-(4-chloro-1-methyl-3-(methylsulfonamido)-1H-indazol-7-yl)-7-(1-methyl-3-(trifluoromethyl)-1H-pyrazol-5-yl)-4-oxo-3,4-dihydropyrido[2,3-d]pyrimidin-2-yl)-2-(3,5-difluorophenyl)ethyl)-2-((3bS,4aR)-3-(difluoromethyl)-5,5-difluoro-3b,4,4a,5-tetrahydro-1H-cyclopropa[3,4]cyclopenta[1,2-c]pyrazol-1-yl)acetamide]: the EC50 in data set [1] stood at 70 pM. For the same compound, the CC50 at 4 day in data set [2] was > 100000 pM.

As to `COc1cncc(-c2ccc3c(=O)n(-c4ccc(Cl)c5c(NS(C)(=O)=O)nn(C)c45)c([C@H](Cc4cc(F)cc(F)c4)NC(=O)Cn4nc(C(F)F)c5c4C(F)(F)[C@@H]4C[C@H]54)nc3n2)n1` (atropisomer, axis not shown; (P)) [Example 54, N-((S)-1-((3P)-3-(4-chloro-1-methyl-3-(methylsulfonamido)-1H-indazol-7-yl)-7-(6-methoxypyrazin-2-yl)-4-oxo-3,4-dihydropyrido[2,3-d]pyrimidin-2-yl)-2-(3,5-difluorophenyl)ethyl)-2-((3bS,4aR)-3-(difluoromethyl)-5,5-difluoro-3b,4,4a,5-tetrahydro-1H-cyclopropa[3,4]cyclopenta[1,2-c]pyrazol-1-yl)acetamide], the EC50 in data set [1] turned out to be 39 pM. In data set [2], the half-maximal cytotoxic concentration (CC50) at 4 day is > 100000 pM.

Turning to `Cn1nc(NS(C)(=O)=O)c2c(Cl)ccc(-n3c([C@H](Cc4cc(F)cc(F)c4)NC(=O)Cn4nc(C(F)F)c5c4C(F)(F)[C@@H]4C[C@H]54)nc4nc(-c5cccc(OC(F)(F)F)c5)ccc4c3=O)c21` (atropisomer, axis not shown; (P)) [Example 21, N-((S)-1-((3P)-3-(4-chloro-1-methyl-3-(methylsulfonamido)-1H-indazol-7-yl)-4-oxo-7-(3-(trifluoromethoxy)phenyl)-3,4-dihydropyrido[2,3-d]pyrimidin-2-yl)-2-(3,5-difluorophenyl)ethyl)-2-((3bS,4aR)-3-(difluoromethyl)-5,5-difluoro-3b,4,4a,5-tetrahydro-1H-cyclopropa[3,4]cyclopenta[1,2-c]pyrazol-1-yl)acetamide], in data set [1], the concentration for a half-maximal effect (EC50) is 390 pM. Moreover, in data set [2], the CC50 at 4 day is > 100000 pM.

Regarding `Cn1nc(NS(C)(=O)=O)c2c(Cl)ccc(-n3c([C@H](Cc4cc(F)cc(F)c4)NC(=O)Cn4nc(C(F)F)c5c4C(F)(F)[C@@H]4C[C@H]54)nc4nc(-c5cccc(C(F)(F)F)n5)ccc4c3=O)c21` (atropisomer, axis not shown; (P)) [Example 9, N-((S)-1-((3P)-3-(4-chloro-1-methyl-3-(methylsulfonamido)-1H-indazol-7-yl)-4-oxo-7-(6-(trifluoromethyl)pyridin-2-yl)-3,4-dihydropyrido[2,3-d]pyrimidin-2-yl)-2-(3,5-difluorophenyl)ethyl)-2-((3bS,4aR)-3-(difluoromethyl)-5,5-difluoro-3b,4,4a,5-tetrahydro-1H-cyclopropa[3,4]cyclopenta[1,2-c]pyrazol-1-yl)acetamide], the EC50 in data set [1] came to 65 pM. The CC50 at 4 day in data set [2] is > 100000 pM.
